The text below walks through data of patent US20170080049A1, “MEDICINE AGAINST GROWTH FAILURE INDUCED BY ADMINISTRATION OF STEROID” (DAIICHI SANKYO COMPANY, LIMITED, priority 2014, published 2017).

Positions of bridges follow the written chain, without caps; N, C: chain ends. Residues, ends and D or L forms follow the SMILES beside them. No end group written: not given here.

What all share (format): in vivo
Data set [1] relates to steroid-induced growth failure, male Crlj:WI (Wistar) rat. Briefly: Simultaneous combined administration test of various steroids and CNP derivative (A) in rats (Example 5). The conditions noted are these: for Body length at dissection / Body length, variation from preadministration value (Δ value) / Body weight, variation from preadministration value (Δ value) / Right femur length at dissection / Tail length at dissection / Tail length, variation from preadministration value (Δ value) / Body weight at dissection: 1 mL/kg s.c. once a day 28 days, + medium or + CNP derivative (A) 1 mg/kg, n=5; for Body weight at dissection: 4-week-old male Wistar rat. The method, then:
0.3 mg/mL solution of dexamethasone (dexamethasone injection “KS”, available from Kyoritsuseiyaku Corporation diluted with saline), prednisolone succinate suspended in 0.1% polysorbate-containing brine (available from Wako Pure Chemical Industries, Ltd., concentration of 5 mg/mL as prednisolone), or betamethasone dipropionate suspended in 0.1% polysorbate-containing brine (available from Wako Pure Chemical Industries, Ltd., concentration of 0.3 mg/mL as betamethasone) was administered to the hypoderm of the back of a 4-week-old male Crlj:WI (Wistar) rat (ten animals for each set of substances) in a volume of 1 mL/kg once a day for 28 days. No substance was administered to the control group (5 animals, Group 1). At the same time, for five of ten animals in each set (Group 2, Group 4, Group 6) a medium (0.03 mol/L acetate buffer (pH 4.0)/1% benzyl alcohol/10% sucrose) and for the remaining five animals (Group 3, Group 5, Group 7) the medium and a 1 mg/mL solution of CNP derivative (A) were administered in combination in the hypoderm of the back in a volume of 1 mL/kg once a day for 28 days. After measuring the body weight, the body length and the tail length under isoflurane anesthesia on the day after the final day of administration, blood was collected from the abdominal aorta and the animal was caused to die, the right femur was extracted and the femur length was measured.

Data set [2] has as its system dexamethasone-induced rat growth failure model. Briefly: Combined administration study of human-type CNP-53 or various CNP derivatives in dexamethasone-induced rat growth failure model (Example 3). The following applies: for plasma cholesterol concentration and thymus weight vs single administration group of dexamethasone (in words): combined with dexamethasone, 28 days; for Plasma cholesterol concentration / thymus body weight ratio / thymus weight at dissection: dexamethasone 0.67 mg/mL pump alone or combined with 15 mg/mL pump of the CNP peptide, continuous s.c. 28 days, 5-week-old male Wistar rat, n=5. The method, then:
Osmotic pumps (MINI-OSMOTIC PUMP Model 2004, available from DURECT CORPORATION, flow rate: 0.25 μL/hr, for 28 days) were charged with 0.67 mg/mL solution of dexamethasone (dexamethasone injection “KS”, available from Kyoritsuseiyaku Corporation) and one osmotic pump was embedded in the hypoderm of the back of each 5-week-old male Crlj:WI (Wistar) rat (5 animals/group, Groups 2 to 6, a total of 25 animals). At the same time, one osmotic pump (the same as above) charged with a 15 mg/mL solution of CNP derivative (A) in Group 3, human-type CNP-53 in Group 4, CNP derivative (B) in Group 5 and CNP derivative (C) in Group 6 was embedded in the hypoderm of the back simultaneously. No substance was administered to the normal control group (Group 1, 5 animals). Then the animals were fed for 28 days, and transitions of the body weight, the body length and the tail length were measured. On the final day, the blood was collected from the abdominal aorta and the animals were caused to die under isoflurane anesthesia, and plasma was separated from the collected blood and the cholesterol concentration was determined by using a “LabAssay (trademark) cholesterol” (available from Wako Pure Chemical Industries, Ltd.). After collecting the blood and causing the animals to die, the right femur and thymus were extracted, and the length of the right femur and the weight of the thymus were measured.

The test system of data set [3] is rat growth failure induced by dexamethasone. Briefly: Action comparing study between CNP derivative (A) and human growth hormone on rat growth failure induced by dexamethasone (Example 6). The method, then: Osmotic pumps (MINI-OSMOTIC PUMP Model 2004, available from DURECT CORPORATION, flow rate: 0.25 μL/hr, for 28 days) were charged with a 0.67 mg/mL solution of dexamethasone (dexamethasone injection “KS”, available from Kyoritsuseiyaku Corporation), and one osmotic pump was embedded in the hypoderm of the back of each 4-week-old male Crlj:WI (Wistar) rat (5 animals/group, Group 2 to Group 4, total of 15 animals). For Group 3, a 1 mg/mL solution of CNP derivative (A) (medium: 0.03 mol/L acetate buffer (pH 4.0)/1% benzyl alcohol/10% sucrose), and for Group 4, a 1 mg/mL solution of human-type growth hormone preparation (somatropin BS subcutaneous injection 10 mg “SANDOZ”) diluted with a phosphate buffer was administered to the hypoderm of the back of five rats, respectively, in a volume of 2 mL/kg once a day for 28 days. No substance was administered to the normal control group (5 animals, Group 1). On the final day, after measuring the body weight, the body length and the tail length, the blood was collected from the abdominal aorta and the animal was caused to die under isoflurane anesthesia, the left femur was extracted and the bone length was measured, and then a histopathological specimen of the epiphyseal region was prepared.

The mark [4] stands for this setting: combined with dexamethasone, 28 days.
Setting [5] is: dexamethasone 0.67 mg/mL pump alone or with CNP derivative (A) or human-type growth hormone 1 mg/mL, 2 mL/kg s.c. once a day 28 days, n=4 or 5.

For `CCC(=O)OCC(=O)[C@@]1(OC(=O)CC)[C@@H](C)C[C@H]2[C@@H]3CCC4=CC(=O)C=C[C@]4(C)[C@@]3(F)[C@@H](O)C[C@@]21C` [Betamethasone, betamethasone dipropionate], in data set [1] (betamethasone 0.3 mg/mL), the “Body length at dissection” value worked out at 211 ± 2 mm; the “Body length, variation from preadministration value (Δ value)” value is “(59 ± 5) mm”; the “Body weight, variation from preadministration value (Δ value)” value is listed as “(208 ± 10) g”; the “Right femur length at dissection” value stood at 33.9 ± 0.5 mm. Further, in data set [1] (betamethasone 0.3 mg/mL), the “Tail length at dissection” value turned out to be 213 ± 4 mm and the “Tail length, variation from preadministration value (Δ value)” value was “(82 ± 3) mm”. In data set [1] (betamethasone dipropionate (0.3 mg/mL as betamethasone)), the “Body weight at dissection” value was found to be 315 ± 11 g. Further, the “growth failure in rats by repeated administration of the steroid for 28 days (in words)” value in data set [1] (rat, in vivo, sc) was “induce growth failure”.
`CC[C@H](C)[C@@H]1NC(=O)[C@H](CCCNC(=N)N)NC(=O)[C@H](CC(=O)O)NC(=O)[C@H](CC(C)C)NC(=O)[C@H](CCCCN)NC(=O)[C@H](CC(C)C)NC(=O)CNC(=O)[C@H](Cc2ccccc2)NC(=O)[C@@H](NC(=O)CNC(=O)[C@H](CCCCN)NC(=O)[C@H](CO)NC(=O)[C@H](CC(C)C)NC(=O)CNC(=O)[C@H](CCCCN)NC(=O)[C@H](CCCCN)NC(=O)[C@H](CC(N)=O)NC(=O)[C@H](C)NC(=O)CNC(=O)[C@H](CCCCN)NC(=O)[C@H](Cc2ccc(O)cc2)NC(=O)[C@H](CCCCN)NC(=O)[C@H](CCCNC(=N)N)NC(=O)[C@H](C)NC(=O)[C@H](CC(N)=O)NC(=O)[C@@H]2CCCN2C(=O)[C@H](Cc2c[nH]cn2)NC(=O)[C@H](CCC(=O)O)NC(=O)[C@H](CCC(N)=O)NC(=O)CNC(=O)[C@@H]2CCCN2)CSSC[C@@H](C(=O)O)NC(=O)CNC(=O)[C@H](CC(C)C)NC(=O)CNC(=O)[C@H](CO)NC(=O)[C@H](CCSC)NC(=O)[C@H](CO)NC(=O)CNC1=O` [CNP derivative (B), Pro-Gly-CNP-37]: in data set [2], the “plasma cholesterol concentration and thymus weight vs single administration group of dexamethasone (in words)” value is “a clear difference was not observed”; the Plasma cholesterol concentration is 64.4 ± 0.8 ^NS mg/dL; the “thymus body weight ratio” value is “[0.14 ± 0.04%*]”; the “thymus weight at dissection” value worked out at 0.42 ± 0.14 g.
As for `CC[C@H](C)[C@@H]1NC(=O)[C@H](CCCNC(=N)N)NC(=O)[C@H](CC(=O)O)NC(=O)[C@H](CC(C)C)NC(=O)[C@H](CCCCN)NC(=O)[C@H](CC(C)C)NC(=O)CNC(=O)[C@H](Cc2ccccc2)NC(=O)[C@@H](NC(=O)CNC(=O)[C@H](CCCCN)NC(=O)[C@H](CO)NC(=O)[C@H](CC(C)C)NC(=O)CN)CSSC[C@@H](C(=O)N[C@H](C(=O)N[C@@H](CCC(N)=O)C(=O)N[C@@H](CCC(N)=O)C(=O)N[C@@H](CCCNC(=N)N)C(=O)N[C@@H](CCCCN)C(=O)N[C@@H](CCC(=O)O)C(=O)N[C@@H](CO)C(=O)N[C@@H](CCCCN)C(=O)N[C@@H](CCCCN)C(=O)N2CCC[C@H]2C(=O)N2CCC[C@H]2C(=O)N[C@@H](C)C(=O)N[C@@H](CCCCN)C(=O)N[C@@H](CC(C)C)C(=O)N[C@@H](CCC(N)=O)C(=O)N2CCC[C@H]2C(=O)N[C@@H](CCCNC(=N)N)C(=O)O)C(C)C)NC(=O)CNC(=O)[C@H](CC(C)C)NC(=O)CNC(=O)[C@H](CO)NC(=O)[C@H](CCSC)NC(=O)[C@H](CO)NC(=O)CNC1=O` [CNP derivative (C), CNP (1-22) Ghrelin (12-28, SEQ ID NO: 8)] (H-GLSKGCFGLKLDRIGSMSGLGCVQQRKESKKPPAKLQPR-OH; disulfide 6-22), in data set [2], the “plasma cholesterol concentration and thymus weight vs single administration group of dexamethasone (in words)” value is given as “a clear difference was not observed”; the Plasma cholesterol concentration is 59.2 ± 7.4 ^NS mg/dL; the “thymus body weight ratio” value was “[0.11 ± 0.02% ^NS]”; the “thymus weight at dissection” value turned out to be 0.35 ± 0.06 g.
As to `C[C@]12C=CC(=O)C=C1CC[C@@H]1[C@@H]2[C@@H](O)C[C@@]2(C)[C@H]1CC[C@]2(O)C(=O)COC(=O)CCC(=O)O` [prednisolone succinate], in data set [1] (prednisolone 5 mg/mL), the “Body length at dissection” value is recorded as 209 ± 4 mm; the “Body length, variation from preadministration value (Δ value)” value is given as “(58 ± 4) mm”; the “Body weight, variation from preadministration value (Δ value)” value is listed as “(191 ± 14) g”; the “Right femur length at dissection” value was 33.3 ± 0.3 mm. Moreover, in data set [1] (prednisolone 5 mg/mL), the “Tail length at dissection” value was found to be 206 ± 6 mm and the “Tail length, variation from preadministration value (Δ value)” value is given as “(79 ± 9) mm”. The “Body weight at dissection” value in data set [1] (prednisolone succinate (5 mg/mL as prednisolone)) was determined as 298 ± 14 g. The “growth failure in rats by repeated administration of the steroid for 28 days (in words)” value in data set [1] (s.c. once a day 28 days, body weight gain, body, tail and femur length, p<0.05 or 0.01) is listed as “induce growth failure”.
As for “DLRVDTKSRAAWARLLQEHPNARKYKGANKKGLSKGCFGLKLDRIGSMSGLGC (disulfide 37-53) [human-type CNP-53]”, in data set [2], the “plasma cholesterol concentration and thymus weight vs single administration group of dexamethasone (in words)” value was “a clear difference was not observed”; the Plasma cholesterol concentration is 62.1 ± 2.2 ^NS mg/dL; the “thymus body weight ratio” value is “[0.11 ± 0.01% ^NS]”; the “thymus weight at dissection” value came to 0.33 ± 0.03 g.
As for “human-type growth hormone: human-type growth hormone preparation, existing therapeutic drug for dwarfism”, in data set [3] (setting [4]), the “elongation of the body length and the tail length vs dexamethasone-only administration group (in words)” value is on record as “no significant difference”; the “left femur length on the final day vs dexamethasone-only administration group (in words)” value is recorded as “No significant difference”. The “Body weight at dissection” value in data set [3] (dexamethasone 0.67 mg/mL pump 28 days alone or with CNP derivative (A) or human-type growth hormone 1 mg/mL, 2 mL/kg s.c. once a day 28 days, 4-week-old male Wistar rat, mean ± SD, n=4 or 5) is listed as 255 ± 7 g. In data set [3] (setting [5]), the “Body length at dissection” value is recorded as 199 ± 5 mm; the “Body length, variation from pre-administration value (Δ value)” value is “(44.8 ± 3.7) mm”; the “Body weight, variation from pre-administration value (Δ value)” value is recorded as “(149 ± 3) g”; the “Left femur length at dissection” value turned out to be 31.7 ± 0.6 mm. Besides, in data set [3] (setting [5]), the “Tail length at dissection” value amounted to 199 ± 3 mm and the “Tail length, variation from pre-administration value (Δ value)” value was “(66.8 ± 5.0) mm”. Also, the “growth plate cartilage layer of the epiphyseal region of the left femur (in words)” value in data set [3] (histology, toluidine blue (FIG. 5), tendency, combinations compared with dexamethasone only) is reported as “swelling”.
